Test results reported in patent US11332498B2, “Ligands for integrin αVβ8, synthesis and uses thereof” (Technische Universitat Munchen, priority 2017, dated 2022).
Like-named read-outs stand apart in the source and are kept apart here. Where a SMILES comes first, the peptide text is derived from it. Bridges are numbered along the chain shown (N, C = ends). Roman numbers before positions name the chains, in order. Side-chain parts run from the residue outwards. [ ]: non-standard residue; d: D form. The star is where a group is joined. BODIPY(FL) = CC1=CC(C)=[N+]2C1=Cc1ccc(CCC(=O)*)n1[B-]2(F)F; NMeK = CN[C@@H](CCCCN)C(=O)O; Ahx = NCCCCCC(=O)O

Experiments:
αvβ8 = αvβ8 (Homo sapiens, UniProt P06756+P26012); test: solid-phase integrin binding assay, αvβ8; conditions: for IC50: Table 1, coated LAP, soluble integrin, read-out: αvβ8 [nM] (integrin binding affinity)
αvβ6 = αvβ6 (Homo sapiens, UniProt P06756+P18564); test: solid-phase integrin binding assay, αvβ6
Experimental: (§1) The activity and selectivity of integrin ligands were determined by a solid-phase binding assay according to the previously reported protocols using coated extracellular matrix proteins and soluble integrins: Fibronectin (Fn) for α5β1, latent activating protein (LAP) for αvβ6 and αvβ8, Vitronectin (Vn) for αvβ3 and αvβ5, Fibrinogen (Fbg) for αIIbβ3.

αvβ3 = αvβ3 (Homo sapiens, UniProt P05106+P06756); test: solid-phase integrin binding assay, αvβ3; conditions: Table 2; coated Vitronectin
Experimental: as §1

αvβ5 = αvβ5 (Homo sapiens, UniProt P06756+P18084); test: solid-phase integrin binding assay, αvβ5
Experimental: as §1

α5β1 = α5β1 (Homo sapiens, UniProt P05556+P08648); test: solid-phase integrin binding assay, α5β1
Experimental: as §1

αIIbβ3 = αIIbβ3 (Homo sapiens, UniProt P05106+P08514); test: solid-phase integrin binding assay, αIIbβ3; conditions: Table 2; coated Fibrinogen
Experimental: as §1

[1] = Table 1, coated LAP, soluble integrin, read-out: αvβ6 [nM] (integrin binding affinity)
[2] = Table 3, BDPFL-labelled compounds and comparatives

Sequence of αvβ6 (P06756 31-889 limits assumed): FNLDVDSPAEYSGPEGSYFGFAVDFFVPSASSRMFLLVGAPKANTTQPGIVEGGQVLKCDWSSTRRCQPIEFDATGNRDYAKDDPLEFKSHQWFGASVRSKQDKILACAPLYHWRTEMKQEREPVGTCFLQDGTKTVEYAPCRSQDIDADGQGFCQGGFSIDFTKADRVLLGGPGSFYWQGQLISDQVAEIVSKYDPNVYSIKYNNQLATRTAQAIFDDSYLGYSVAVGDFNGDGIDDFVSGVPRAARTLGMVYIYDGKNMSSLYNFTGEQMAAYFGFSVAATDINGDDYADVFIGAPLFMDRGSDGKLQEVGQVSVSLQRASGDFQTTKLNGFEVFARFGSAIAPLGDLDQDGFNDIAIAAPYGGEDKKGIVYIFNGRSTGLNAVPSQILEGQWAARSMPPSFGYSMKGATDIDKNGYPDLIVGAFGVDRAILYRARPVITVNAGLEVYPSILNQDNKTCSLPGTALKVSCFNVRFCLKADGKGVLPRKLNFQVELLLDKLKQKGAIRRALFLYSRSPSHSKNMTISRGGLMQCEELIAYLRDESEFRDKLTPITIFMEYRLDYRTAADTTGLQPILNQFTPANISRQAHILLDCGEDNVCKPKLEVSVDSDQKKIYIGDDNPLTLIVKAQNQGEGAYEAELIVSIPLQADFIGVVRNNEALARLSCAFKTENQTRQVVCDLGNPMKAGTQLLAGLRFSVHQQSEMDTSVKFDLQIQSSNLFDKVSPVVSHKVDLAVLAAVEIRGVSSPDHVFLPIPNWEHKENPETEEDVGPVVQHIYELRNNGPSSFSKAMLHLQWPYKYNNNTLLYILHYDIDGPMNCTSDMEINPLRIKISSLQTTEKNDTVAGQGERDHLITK
Sequence of αvβ6 (P06756 891-992 partner limits assumed): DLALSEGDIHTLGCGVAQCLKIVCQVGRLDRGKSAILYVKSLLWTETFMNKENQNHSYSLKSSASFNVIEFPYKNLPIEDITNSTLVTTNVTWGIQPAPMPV
Sequence of αvβ6 (P18564 22-707 limits assumed): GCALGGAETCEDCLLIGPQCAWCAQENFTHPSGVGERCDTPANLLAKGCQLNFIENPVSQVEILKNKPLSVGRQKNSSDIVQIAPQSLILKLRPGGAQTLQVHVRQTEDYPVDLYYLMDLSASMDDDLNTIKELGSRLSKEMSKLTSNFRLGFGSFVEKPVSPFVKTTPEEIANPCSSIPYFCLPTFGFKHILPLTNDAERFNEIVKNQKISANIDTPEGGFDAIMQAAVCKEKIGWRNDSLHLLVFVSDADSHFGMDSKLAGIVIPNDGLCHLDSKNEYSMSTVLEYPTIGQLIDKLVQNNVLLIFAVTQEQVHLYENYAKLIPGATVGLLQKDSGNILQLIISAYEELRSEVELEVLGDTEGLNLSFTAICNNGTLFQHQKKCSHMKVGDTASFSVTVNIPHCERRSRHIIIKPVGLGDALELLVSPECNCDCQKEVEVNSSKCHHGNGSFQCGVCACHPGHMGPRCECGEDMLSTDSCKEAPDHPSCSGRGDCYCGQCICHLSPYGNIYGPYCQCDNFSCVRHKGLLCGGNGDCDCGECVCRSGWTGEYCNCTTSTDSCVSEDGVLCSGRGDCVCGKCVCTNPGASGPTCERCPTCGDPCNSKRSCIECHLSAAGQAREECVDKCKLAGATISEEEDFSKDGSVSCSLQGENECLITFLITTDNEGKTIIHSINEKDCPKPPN
Sequence of αvβ8 (P06756 31-889 limits assumed): as the sequence (P06756 31-889 limits assumed) above
Sequence of αvβ8 (P06756 891-992 partner limits assumed): as the sequence (P06756 891-992 partner limits assumed) above
Sequence of αvβ8 (P26012 43-684 limits assumed): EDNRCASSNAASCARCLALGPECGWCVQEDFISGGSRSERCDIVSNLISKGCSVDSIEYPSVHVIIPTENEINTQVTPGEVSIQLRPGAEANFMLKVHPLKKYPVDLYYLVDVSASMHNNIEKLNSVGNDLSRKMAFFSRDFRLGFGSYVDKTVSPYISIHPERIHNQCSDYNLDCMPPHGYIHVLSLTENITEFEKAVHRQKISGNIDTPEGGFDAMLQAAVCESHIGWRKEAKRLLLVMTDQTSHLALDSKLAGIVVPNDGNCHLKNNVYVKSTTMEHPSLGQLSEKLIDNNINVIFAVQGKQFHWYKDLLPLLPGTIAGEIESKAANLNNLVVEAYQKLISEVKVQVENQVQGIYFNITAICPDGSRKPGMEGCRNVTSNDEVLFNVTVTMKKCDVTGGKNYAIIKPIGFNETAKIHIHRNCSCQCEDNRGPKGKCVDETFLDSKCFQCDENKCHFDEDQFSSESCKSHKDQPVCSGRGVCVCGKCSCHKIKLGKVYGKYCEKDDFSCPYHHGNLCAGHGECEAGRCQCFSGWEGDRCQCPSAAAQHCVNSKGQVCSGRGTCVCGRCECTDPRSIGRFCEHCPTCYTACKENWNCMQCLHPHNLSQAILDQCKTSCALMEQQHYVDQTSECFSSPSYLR
Sequence of αvβ5 (P06756 31-889 limits assumed): as the sequence (P06756 31-889 limits assumed) above
Sequence of αvβ5 (P06756 891-1048 partner limits assumed): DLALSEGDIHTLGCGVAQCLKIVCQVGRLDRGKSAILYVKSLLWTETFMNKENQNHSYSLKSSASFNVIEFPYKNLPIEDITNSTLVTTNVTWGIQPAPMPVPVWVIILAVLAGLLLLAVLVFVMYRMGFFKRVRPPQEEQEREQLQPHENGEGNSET
Sequence of αvβ5 (P18084 24-799): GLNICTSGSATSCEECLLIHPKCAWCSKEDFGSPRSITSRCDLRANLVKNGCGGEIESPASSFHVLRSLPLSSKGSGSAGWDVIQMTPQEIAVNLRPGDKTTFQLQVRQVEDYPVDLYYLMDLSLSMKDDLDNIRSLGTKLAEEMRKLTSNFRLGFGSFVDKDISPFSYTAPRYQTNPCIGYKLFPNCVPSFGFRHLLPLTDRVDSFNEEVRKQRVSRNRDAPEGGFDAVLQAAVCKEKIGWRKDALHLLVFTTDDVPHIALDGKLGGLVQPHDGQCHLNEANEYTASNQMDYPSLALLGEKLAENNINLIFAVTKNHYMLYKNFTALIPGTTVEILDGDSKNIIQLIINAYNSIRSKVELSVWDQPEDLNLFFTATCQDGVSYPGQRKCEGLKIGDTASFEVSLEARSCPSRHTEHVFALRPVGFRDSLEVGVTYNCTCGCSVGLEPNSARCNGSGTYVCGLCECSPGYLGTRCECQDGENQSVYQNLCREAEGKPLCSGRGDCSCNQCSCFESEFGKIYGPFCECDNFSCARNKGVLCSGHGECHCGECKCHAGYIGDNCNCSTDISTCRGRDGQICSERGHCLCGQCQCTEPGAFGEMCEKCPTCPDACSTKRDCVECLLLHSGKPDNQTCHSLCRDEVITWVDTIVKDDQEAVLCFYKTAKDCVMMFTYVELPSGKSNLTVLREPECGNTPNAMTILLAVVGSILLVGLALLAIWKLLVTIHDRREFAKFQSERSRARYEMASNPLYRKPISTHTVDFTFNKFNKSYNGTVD
Sequence of αvβ3 (P06756 31-889 limits assumed): as the sequence (P06756 31-889 limits assumed) above
Sequence of αvβ3 (P06756 891-992 partner limits assumed): as the sequence (P06756 891-992 partner limits assumed) above
Sequence of αvβ3 (P05106 27-718 limits assumed): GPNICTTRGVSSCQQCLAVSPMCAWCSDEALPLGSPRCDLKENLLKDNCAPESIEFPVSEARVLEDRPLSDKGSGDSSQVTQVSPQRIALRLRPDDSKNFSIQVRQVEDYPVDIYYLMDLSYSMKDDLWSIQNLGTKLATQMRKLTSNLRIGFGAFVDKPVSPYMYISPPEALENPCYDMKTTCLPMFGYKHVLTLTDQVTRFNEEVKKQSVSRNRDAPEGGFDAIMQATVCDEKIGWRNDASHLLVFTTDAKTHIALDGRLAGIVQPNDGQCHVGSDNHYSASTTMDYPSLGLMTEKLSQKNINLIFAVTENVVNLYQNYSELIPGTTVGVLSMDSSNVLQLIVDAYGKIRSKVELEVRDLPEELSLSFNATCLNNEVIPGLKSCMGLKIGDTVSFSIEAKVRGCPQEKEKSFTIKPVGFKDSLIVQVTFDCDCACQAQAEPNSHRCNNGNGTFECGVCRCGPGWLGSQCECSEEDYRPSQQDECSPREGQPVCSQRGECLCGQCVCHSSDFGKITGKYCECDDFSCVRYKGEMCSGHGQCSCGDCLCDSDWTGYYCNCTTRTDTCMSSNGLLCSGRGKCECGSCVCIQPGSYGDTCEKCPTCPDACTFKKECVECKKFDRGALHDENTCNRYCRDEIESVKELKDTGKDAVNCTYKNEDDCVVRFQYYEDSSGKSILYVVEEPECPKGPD

| Structure (SMILES) | IC50 (αvβ8) | IC50 (αvβ6; [1]) | IC50 (αvβ5; [2]) | other results |
| --- | --- | --- | --- | --- |
| CC(C)C[C@@H]1NC(=O)CNC(=O)[C@H](CCCCN)N(C)C(=O)[C@H]2CCCN2C(=O)[C@H](CC(C)C)NC(=O)[C@H](CC(=O)O)NC(=O)CNC(=O)[C@H](CCCNC(=N)N)NC1=O [compound 8, Cyclo-(Arg-Gly-Asp-Leu-D-Pro-(N-Me-Lys)-Gly-Leu)] (cyclo(RGDL[dP][NMeK]GL)) | 6.5 nM | 201 nM | – | IC50 (αvβ3): > 1 µM; IC50 (αvβ5; Table 2, coated Vitronectin): > 1 µM; IC50 (α5β1; Table 2, coated Fibronectin): > 1 µM; IC50 (αIIbβ3): > 1 µM |
| CC1=CC(C)=[N+]2C1=Cc1ccc(CCC(=O)NCCCCCC(=O)NCCCC[C@H]3C(=O)NCC(=O)N[C@@H](CC(C)C)C(=O)N[C@@H](CCCNC(=N)N)C(=O)NCC(=O)N[C@@H](CC(=O)O)C(=O)N[C@@H](CC(C)C)C(=O)N4CCC[C@@H]4C(=O)N3C)n1[B-]2(F)F [Compound 9b, 9-Ahx-BDPFL] (cyclo(RGDL[dP][NMeK]([Ahx-BODIPY(FL)])GL)) | – | – | > 10 µM | IC50 (α5β1; [2]): > 1 µM |
| Cc1cc(C)n2c1C=C1C=CC(CCC(=O)NCC(=O)N3CCC[C@H]3C(=O)N3CCC[C@H]3C(=O)N3CCC[C@H]3C(=O)N3CCC[C@H]3C(=O)N3CCC[C@H]3C(=O)N3CCC[C@H]3C(=O)NCC(=O)NCCCC[C@H]3C(=O)NCC(=O)N[C@@H](CC(C)C)C(=O)N[C@@H](CCCNC(=N)N)C(=O)NCC(=O)N[C@@H](CC(=O)O)C(=O)N[C@@H](CC(C)C)C(=O)N4CCC[C@@H]4C(=O)N3C)=[N+]1[B-]2(F)F [Compound 9f, 9-G(P)6G-BDPFL] (I: {BODIPY(FL)}-GPPPPPPG / II: cyclo(RGDL[dP][NMeK]GL); amide I:C-II:6) | – | – | > 10 µM | binding activity to αvβ8 (in words) (αvβ8; comparison with compound 9, comment on Table 3): reduced binding activity |
| Cc1cc(C)n2c1C=C1C=CC(CCC(=O)NCC(=O)N3CCC[C@H]3C(=O)N3CCC[C@H]3C(=O)N3CCC[C@H]3C(=O)NCC(=O)NCCCC[C@H]3C(=O)NCC(=O)N[C@@H](CC(C)C)C(=O)N[C@@H](CCCNC(=N)N)C(=O)NCC(=O)N[C@@H](CC(=O)O)C(=O)N[C@@H](CC(C)C)C(=O)N4CCC[C@@H]4C(=O)N3C)=[N+]1[B-]2(F)F [Compound 9e, 9-G(P)3G-BDPFL] (I: cyclo(RGDL[dP][NMeK]GL) / II: {BODIPY(FL)}-GPPPG; amide I:6-II:C) | – | – | > 10 µM | IC50 (αvβ6; Table 3, BDPFL-labelled compounds and comparatives, read-out: αvβ6, IC50): 247 nM |
| CC(C)C[C@@H]1NC(=O)CNC(=O)[C@@H]2CCCN2C(=O)[C@H]2CCCN2C(=O)[C@H](CC(C)C)NC(=O)[C@H](CC(=O)O)NC(=O)CNC(=O)[C@H](CCCNC(=N)N)NC1=O [compound 2, Cyclo-(Arg-Gly-Asp-Leu-D-Pro-Pro-Gly-Leu)] (cyclo(RGDL[dP]PGL)) | 0.93 nM | 210 nM | – | – |
| CC(=O)NCCCC[C@H]1C(=O)NCC(=O)N[C@@H](CC(C)C)C(=O)N[C@@H](CCCNC(=N)N)C(=O)NCC(=O)N[C@@H](CC(=O)O)C(=O)N[C@@H](CC(C)C)C(=O)N2CCC[C@@H]2C(=O)N1C [compound 9, Cyclo-(Arg-Gly-Asp-Leu-D-Pro-(N-Me-Lys(Ac))-Gly-Leu)] (cyclo(RGDL[dP][NMeK](Ac)GL)) | 6 nM | 201 nM | – | – |
| Cc1cc(C)n2c1C=C1C=CC(CCC(=O)NCCCC[C@H]3C(=O)NCC(=O)N[C@@H](CC(C)C)C(=O)N[C@@H](CCCNC(=N)N)C(=O)NCC(=O)N[C@@H](CC(=O)O)C(=O)N[C@@H](CC(C)C)C(=O)N4CCC[C@@H]4C(=O)N3C)=[N+]1[B-]2(F)F [Compound 9a, 9-BDPFL] (cyclo(RGDL[dP][NMeK](BODIPY(FL))GL)) | – | – | > 10 µM | – |
